From patent publication US9937225B2, “Topical formulations and uses thereof” (OCULAR TECHNOLOGIES SARL, priority 2012, dated 2018)

Assay: Visual appearance of mixed nanomicellar formulation
Type: physicochemical
Settings: for Final formulation / Resuspend in water / Final formulation (make up with 2X buffer containing 0.01% Oc-40): 1001 4 wt %; for Result: solvent evaporation, HCO-60 4 wt %, Octoxynol-40 0.01 wt %
Method: Mixed nanomicellar formulation encapsulating compound 1001 was prepared by solvent evaporation method in two steps: 1) Preparation of basic formulation and 2) rehydration. In step one, compound 1001, HCO-60 and octoxynol-40 were dissolved separately in 0.3 mL of ethyl acetate. These three solutions were mixed together in 15-mL centrifuge tube. The resultant mixture was vortexed to obtain a homogenous solution. Ethyl acetate solvent was removed with speed vacuum to obtain a solid thin film. The residue was kept overnight under high vacuum at room temperature to remove residual organic solvent. In step two, the resultant thin film was hydrated with 1 mL of double distilled deionized water by vortexing the solution. The rehydrated formulation was suspended in 2× phosphate buffer solution, (pH 6.5). It was filtered through 0.2 μm nylon filter membrane to remove the unentrapped drug aggregates and other foreign particulates. […]
The preparation of MNF encapsulating compound 1001 (neat oil) can be divided into two steps. As an example for the development of 3.0 wt % HCO-40 or HCO-60 MNF encapsulating 0.4% compound 1001 is described below. […] To this melt polymer compound 1001 (˜20 mg), thermostated at 40° C., was added and mixed for homogenous distribution. […] (in refrigerator).
This aqueous solution was allowed to reach room temperature, under natural conditions. The pH of the solution was adjusted to 5.5 and the volume was made up with 2× phosphate buffer saline (pH 5.5) containing octoxynol-40 (0.01 wt %) and PVP-K-90 (1.2 wt %). The formulation was filtered through 0.2 μm nylon filter to remove any foreign material and obtain a clear homogenous aqueous RX-1001 formulation.
The results obtained for physical appearance of the mixture, different phases, at different temperatures and appearance of final formulation are summarized in Tables 2a-2c. […]

[1] = melt at 40° C., cooled to room temperature, HCO-40 0.5 wt %
[2] = melt at 40° C., cooled to room temperature, HCO-40 0.75 wt %
[3] = melt at 40° C., cooled to room temperature, HCO-40 1.0 wt %
[4] = melt at 40° C., cooled to room temperature, HCO-40 1.25 wt %
[5] = melt at 40° C., cooled to room temperature, HCO-40 1.5 wt %
[6] = melt at 40° C., cooled to room temperature, HCO-40 1.75 wt %
[7] = melt at 40° C., cooled to room temperature, HCO-40 2.0 wt %
[8] = melt at 40° C., cooled to room temperature, HCO-40 2.25 wt %
[9] = melt at 40° C., cooled to room temperature, HCO-40 2.5 wt %
[10] = melt at 40° C., cooled to room temperature, HCO-40 2.75 wt %
[11] = melt at 40° C., cooled to room temperature, HCO-40 3.0 wt %
[12] = melt at 40° C., cooled to room temperature, HCO-40 4.0 wt %

C#CC[C@@H](O)/C=C/C=C/C#C[C@@H](O)CCCC(=O)OC(C)C [compound 1001]
Final formulation [1]: Emulsion
Resuspend in water [1]: Emulsion
Final formulation [2]: Emulsion
Resuspend in water [2]: Emulsion
Final formulation [3]: Emulsion
Resuspend in water [3]: Emulsion
Final formulation [4]: Emulsion
Resuspend in water [4]: Emulsion
Final formulation [5]: Emulsion
Resuspend in water [5]: Emulsion
Final formulation [6]: Emulsion
Resuspend in water [6]: Emulsion
Final formulation [7]: Emulsion
Resuspend in water [7]: Emulsion
Final formulation [8]: Emulsion
Resuspend in water [8]: Emulsion
Final formulation [9]: Yellow color
Resuspend in water [9]: Yellow
Final formulation [10]: Pale yellow
Resuspend in water [10]: Pale yellow
Final formulation [11]: Clear
Resuspend in water [11]: Clear
Final formulation [12]: Clear
Resuspend in water [12]: Clear
Resuspend in water (melt cooled to 25° C., placed at 4° C., back to room temperature, water at 40° C., HCO-40 0.5 wt %): Emulsion
Resuspend in water (melt cooled to 25° C., placed at 4° C., back to room temperature, water at 40° C., HCO-40 0.75 wt %): Emulsion
Resuspend in water (melt cooled to 25° C., placed at 4° C., back to room temperature, water at 40° C., HCO-40 1.0 wt %): Emulsion
Resuspend in water (melt cooled to 25° C., placed at 4° C., back to room temperature, water at 40° C., HCO-40 1.25 wt %): Emulsion
Resuspend in water (melt cooled to 25° C., placed at 4° C., back to room temperature, water at 40° C., HCO-40 1.5 wt %): Emulsion
Resuspend in water (melt cooled to 25° C., placed at 4° C., back to room temperature, water at 40° C., HCO-40 1.75 wt %): Emulsion
Resuspend in water (melt cooled to 25° C., placed at 4° C., back to room temperature, water at 40° C., HCO-40 2.0 wt %): Emulsion
Resuspend in water (melt cooled to 25° C., placed at 4° C., back to room temperature, water at 40° C., HCO-40 2.25 wt %): Emulsion
Resuspend in water (melt cooled to 25° C., placed at 4° C., back to room temperature, water at 40° C., HCO-40 2.5 wt %): Yellow
Resuspend in water (melt cooled to 25° C., placed at 4° C., back to room temperature, water at 40° C., HCO-40 2.75 wt %): Pale yellow
Resuspend in water (melt cooled to 25° C., placed at 4° C., back to room temperature, water at 40° C., HCO-40 3.0 wt %): Clear
Resuspend in water (melt cooled to 25° C., placed at 4° C., back to room temperature, water at 40° C., HCO-40 4.0 wt %): Clear
Final formulation (melt cooled to 25° C., placed at 4° C., back to room temperature, HCO-40 0.5 wt %): Emulsion
Final formulation (melt cooled to 25° C., placed at 4° C., back to room temperature, HCO-40 0.75 wt %): Emulsion
Final formulation (melt cooled to 25° C., placed at 4° C., back to room temperature, HCO-40 1.0 wt %): Emulsion
Final formulation (melt cooled to 25° C., placed at 4° C., back to room temperature, HCO-40 1.25 wt %): Emulsion
Final formulation (melt cooled to 25° C., placed at 4° C., back to room temperature, HCO-40 1.5 wt %): Emulsion
Final formulation (melt cooled to 25° C., placed at 4° C., back to room temperature, HCO-40 1.75 wt %): Emulsion
Final formulation (melt cooled to 25° C., placed at 4° C., back to room temperature, HCO-40 2.0 wt %): Emulsion
Final formulation (melt cooled to 25° C., placed at 4° C., back to room temperature, HCO-40 2.25 wt %): Emulsion
Final formulation (melt cooled to 25° C., placed at 4° C., back to room temperature, HCO-40 2.5 wt %): Yellow color
Final formulation (melt cooled to 25° C., placed at 4° C., back to room temperature, HCO-40 2.75 wt %): Very pale yellow
Final formulation (melt cooled to 25° C., placed at 4° C., back to room temperature, HCO-40 3.0 wt %): Clear
Final formulation (melt cooled to 25° C., placed at 4° C., back to room temperature, HCO-40 4.0 wt %): Clear
Final formulation (make up with 2X buffer containing 0.01% Oc-40) (melt method, HCO-60 1.0 wt %): Emulsion
Resuspend in water (melt method, HCO-60 1.0 wt %, water at 40°): Emulsion
Final formulation (make up with 2X buffer containing 0.01% Oc-40) (melt method, HCO-60 2.0 wt %): Pale yellow
Resuspend in water (melt method, HCO-60 2.0 wt %, water at 40°): Forms pale
Final formulation (make up with 2X buffer containing 0.01% Oc-40) (melt method, HCO-60 2.25 wt %): Pale yellow
Resuspend in water (melt method, HCO-60 2.25 wt %, water at 40°): Forms pale
Final formulation (make up with 2X buffer containing 0.01% Oc-40) (melt method, HCO-60 2.5 wt %): Pale yellow
Resuspend in water (melt method, HCO-60 2.5 wt %, water at 40°): Forms very
Final formulation (make up with 2X buffer containing 0.01% Oc-40) (melt method, HCO-60 2.75 wt %): Clear solution
Resuspend in water (melt method, HCO-60 2.75 wt %, water at 40°): Forms very
Final formulation (make up with 2X buffer containing 0.01% Oc-40) (melt method, HCO-60 3.0 wt %): Clear solution
Resuspend in water (melt method, HCO-60 3.0 wt %, water at 40°): Clear solution
Final formulation (make up with 2X buffer containing 0.01% Oc-40) (melt method, HCO-60 3.5 wt %): Clear solution
Resuspend in water (melt method, HCO-60 3.5 wt %, water at 40°): Clear solution
Final formulation (make up with 2X buffer containing 0.01% Oc-40) (melt method, HCO-60 4.0 wt %): Clear solution
Resuspend in water (melt method, HCO-60 4.0 wt %, water at 40°): Clear solution
Result (1001 initially added 0.035 wt %): Clear/transparent
Result (1001 initially added 0.070 wt %): Clear/transparent
Result (1001 initially added 0.095 wt %): Clear/transparent
Result (1001 initially added 0.120 wt %): Pale yellow color
Result (1001 initially added 0.250 wt %): Yellow color
Result (1001 initially added 0.300 wt %): Yellow color
Result (1001 initially added 0.400 wt %): Yellow color
